Assay results taken from patent US20070004621A1, “Bex4 nucleic acids, polypeptides, and method of using” (priority 2003, published 2007).

Assays:
[1] = test system: Bex4 expression in Xa cell line; assay: Bex4 expression and site 1 methylation in Xa hybrid cell line after inhibitor treatment; assay type: cell-based; conditions: for Bex4 expression / transcription: Xa (active X) hybrid cell line, various concentrations
Experimental: To determine if methylation of site 1 controlled Bex4 expression in the Xa cell line, cells were treated with various concentrations of the methyltransferase inhibitor 5-aza-2′ deoxycytidine (5-aza-dC). […] Epigenetic inactivation Bex4 in Xa was specific, since two genes flanking Bex4, namely Bex3/NADE and pp21 homolog, were expressed in Xa.

[2] = test system: Bex4 transcription in OV202 cells; assay: Bex4 transcription (RT-PCR) in OV202 cells after 5-aza-2′-deoxycytidine treatment; assay type: cell-based, human; conditions: OV202 cells, 0, 1, 5, or 10 μM, 48 hours, PCR with Bex4 specific primers
Experimental: To determine if hypermethylation is responsible for inactivation of Bex4 expression in OvCa cell lines, OV202 cells were treated with 0, 1, 5, or 10 μM 5-aza-2′-deoxycytidine (a DNA methyltransferase inhibitor) for 48 hours. RNA was extracted, reverse transcribed, and analyzed by PCR using Bex4 specific primers.

[3] = test system: Bex4 transcription in OV207; assay: Bex4 transcription in OV207 cells after 5-aza-dC treatment; assay type: cell-based, human; conditions: OV207 cell line
From the text: Methylation at site 1 in these samples was associated with loss of Bex4 expression, as evidenced by semi-quantitative RT-PCR.

Nc1ncn([C@H]2C[C@H](O)[C@@H](CO)O2)c(=O)n1 [5-aza-2′-deoxycytidine]
methylation of site 1 (bisulfite-modified DNA) ([1]; 5-aza-dC treated Xa cells): demethylation of site 1
Bex4 expression / transcription [1]: dose-dependent increase
transcription of Bex4 [2]: dose dependant increase
Bex4 transcription [3]: induced Bex4 transcription

CC(/C=C/C(=O)NO)=C\[C@@H](C)C(=O)c1ccc(N(C)C)cc1 [Trichostatin A, trichostatin A]
Bex4 expression / transcription [1]: did not affect
